Reference: patent publication US20260297085A1, “1 H-PYRROLO[2,3-B]PYRIDIN-4-YL]-2-OXOPYRROLIDINE-3-CARBONITRILE DERIVATIVES AS TYROSINE KINASE 2 (TYK2) INHIBITORS FOR THE TREATMENT OF INFLAMMATORY DISEASES” (BIOGEN MA INC., priority 2023, published 2026)
Where a name gives a salt, the structure may show the parent alone.

Experiments:
[1] = target: Tyk2 kinase activity on STAT4 in NK92 cells (Homo sapiens, UniProt P29597); experiment: pSTAT4 cell assay (MSD; NK92 cells, 30 ng/mL IL2 stimulation); assay type: cell-based; details: 30 ng/mL IL2, 15 minutes
Experimental: The inhibitory potency of compounds of the disclosure against the Tyk2 kinase activity on STAT4 was evaluated using an MSD-platform plate-based assay format. NK92 cells natively expressing STAT4 and Tyk2 were serum-starved to reduce background phosphorylation levels, then cells were treated compounds for 1 hr with a 10-point four-fold dilution series starting at 10 μM. Cells were then stimulated with 30 ng/mL IL2 for 15 minutes. Cells were lysed and […] levels were quantitated using an MSD plate-based assay with anti-STAT4 antibodies. The data were normalized and the percent activity versus log concentration of compound were fitted with a 4-parameter logistic model to generate to generate IC50 curves.

[2] = target: T1, human TYK2 kinase domain (JH1) (Homo sapiens, UniProt P29597); experiment: JH1 biochemical assay for TYK2 (ADP-Glo kinase assay, recombinant JH1 catalytic domain, JAK3-974 peptide, 10 μM ATP); details: TYK2 JH1, ADP-Glo
T1 construct: recombinantly generated catalytic kinase (also known as JH1) domain of human JAK1, JAK2, JAK3 and TYK2
T1 sequence (P29597 897-1176 limits assumed): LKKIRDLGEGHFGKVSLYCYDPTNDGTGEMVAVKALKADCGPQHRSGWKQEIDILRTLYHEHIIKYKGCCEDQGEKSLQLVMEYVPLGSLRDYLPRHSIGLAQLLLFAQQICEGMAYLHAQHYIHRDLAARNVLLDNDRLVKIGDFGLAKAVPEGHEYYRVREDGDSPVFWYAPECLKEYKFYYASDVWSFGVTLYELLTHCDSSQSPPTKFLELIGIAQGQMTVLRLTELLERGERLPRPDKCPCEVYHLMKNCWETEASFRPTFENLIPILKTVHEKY
In short: (§1)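 Reactions ran 100 min with 50 μM substrate peptide (JAK3-342 for JAK1 at 4 nM enzyme; JAK3-974 for JAK2 0.2 nM, JAK3 0.3 nM, TYK2 2 nM), and ADP formed was read by ADP-Glo luminescence. Eleven-point 3-fold series from 10 or 1 μM; IC50 fitted by 4-parameter logistic model.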

[3] = target: T2, human JAK2 kinase domain (JH1) (Homo sapiens, UniProt O60674); experiment: JH1 biochemical assay for JAK2 (ADP-Glo kinase assay, recombinant JH1 catalytic domain, JAK3-974 peptide, 15 μM ATP); details: JAK2 JH1, ADP-Glo
T2 construct: recombinantly generated catalytic kinase (also known as JH1) domain of human JAK1, JAK2, JAK3 and TYK2
In short: as §1

[4] = target: T3, human JAK3 kinase domain (JH1) (Homo sapiens, UniProt P52333); experiment: JH1 biochemical assay for JAK3 (ADP-Glo kinase assay, recombinant JH1 catalytic domain, JAK3-974 peptide, 4 μM ATP); details: JAK3 JH1, ADP-Glo
T3 construct: recombinantly generated catalytic kinase (also known as JH1) domain of human JAK1, JAK2, JAK3 and TYK2
In short: as §1

[5] = target: T4, human JAK1 kinase domain (JH1) (Homo sapiens, UniProt P23458); experiment: JH1 biochemical assay for JAK1 (ADP-Glo kinase assay, recombinant JH1 catalytic domain, JAK3-342 peptide, 35 μM ATP); details: JAK1 JH1, ADP-Glo
T4 construct: recombinantly generated catalytic kinase (also known as JH1) domain of human JAK1, JAK2, JAK3 and TYK2
In short: as §1

T2 sequence (O60674 849-1124 limits assumed): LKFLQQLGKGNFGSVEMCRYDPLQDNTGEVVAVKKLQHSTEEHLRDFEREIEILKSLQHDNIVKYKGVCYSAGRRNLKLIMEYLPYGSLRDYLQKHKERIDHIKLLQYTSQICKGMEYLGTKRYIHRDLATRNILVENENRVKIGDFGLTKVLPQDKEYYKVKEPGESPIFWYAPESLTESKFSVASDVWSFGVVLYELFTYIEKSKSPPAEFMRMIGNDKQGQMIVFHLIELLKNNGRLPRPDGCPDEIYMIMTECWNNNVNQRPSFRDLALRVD
T3 sequence (P52333 822-1111 limits assumed): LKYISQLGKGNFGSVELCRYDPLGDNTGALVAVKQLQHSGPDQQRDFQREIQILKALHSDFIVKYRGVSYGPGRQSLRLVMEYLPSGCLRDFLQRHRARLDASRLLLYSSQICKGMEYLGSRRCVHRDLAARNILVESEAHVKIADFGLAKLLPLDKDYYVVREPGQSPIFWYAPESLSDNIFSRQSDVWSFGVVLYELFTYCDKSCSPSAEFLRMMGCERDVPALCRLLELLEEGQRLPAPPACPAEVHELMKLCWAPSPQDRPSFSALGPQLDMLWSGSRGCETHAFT
T4 sequence (P23458 875-1153 limits assumed): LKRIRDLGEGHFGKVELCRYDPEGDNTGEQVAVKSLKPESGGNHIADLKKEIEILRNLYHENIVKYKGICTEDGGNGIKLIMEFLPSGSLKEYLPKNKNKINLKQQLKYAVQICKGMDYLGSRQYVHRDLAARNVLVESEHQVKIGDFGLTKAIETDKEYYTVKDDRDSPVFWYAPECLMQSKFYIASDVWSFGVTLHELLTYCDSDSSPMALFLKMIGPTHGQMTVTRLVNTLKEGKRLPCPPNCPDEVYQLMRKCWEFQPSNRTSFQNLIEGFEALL
Tyk2 kinase activity on STAT4 in NK92 cells, sequence (P29597 whole entry): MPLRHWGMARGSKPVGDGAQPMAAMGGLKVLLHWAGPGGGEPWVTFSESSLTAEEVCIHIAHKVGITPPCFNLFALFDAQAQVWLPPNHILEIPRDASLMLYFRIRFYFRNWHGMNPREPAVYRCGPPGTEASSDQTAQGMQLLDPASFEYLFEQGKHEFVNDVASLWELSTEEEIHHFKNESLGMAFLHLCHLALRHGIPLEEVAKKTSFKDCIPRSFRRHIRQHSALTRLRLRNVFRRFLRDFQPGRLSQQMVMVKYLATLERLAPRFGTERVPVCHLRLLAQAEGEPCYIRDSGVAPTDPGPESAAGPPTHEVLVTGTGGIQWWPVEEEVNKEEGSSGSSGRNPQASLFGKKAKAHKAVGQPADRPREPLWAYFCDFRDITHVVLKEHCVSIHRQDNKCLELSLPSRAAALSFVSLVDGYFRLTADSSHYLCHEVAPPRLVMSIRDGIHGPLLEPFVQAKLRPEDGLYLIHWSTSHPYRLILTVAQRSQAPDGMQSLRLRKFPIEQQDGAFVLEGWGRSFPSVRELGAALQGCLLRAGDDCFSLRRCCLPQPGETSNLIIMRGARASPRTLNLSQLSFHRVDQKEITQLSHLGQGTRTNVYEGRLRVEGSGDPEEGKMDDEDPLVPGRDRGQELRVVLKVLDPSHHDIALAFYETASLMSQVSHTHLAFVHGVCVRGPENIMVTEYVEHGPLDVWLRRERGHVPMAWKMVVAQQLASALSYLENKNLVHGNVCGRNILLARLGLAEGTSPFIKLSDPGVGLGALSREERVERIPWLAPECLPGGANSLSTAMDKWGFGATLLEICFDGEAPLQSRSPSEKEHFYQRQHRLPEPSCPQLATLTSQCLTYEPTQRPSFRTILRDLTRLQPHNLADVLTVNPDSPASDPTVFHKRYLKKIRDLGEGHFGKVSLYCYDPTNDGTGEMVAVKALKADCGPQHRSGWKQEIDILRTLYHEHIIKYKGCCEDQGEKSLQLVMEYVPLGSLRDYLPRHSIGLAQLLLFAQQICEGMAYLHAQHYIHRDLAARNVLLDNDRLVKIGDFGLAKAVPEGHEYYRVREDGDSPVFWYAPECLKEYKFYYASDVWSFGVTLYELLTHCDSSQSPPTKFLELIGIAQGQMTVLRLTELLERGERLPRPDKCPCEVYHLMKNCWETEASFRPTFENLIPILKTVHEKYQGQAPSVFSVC

Compound | IC50 [1] | IC50 [2] | IC50 [3] | IC50 [4] | IC50 [5]
C[C@@H]1OC[C@@H]1n1cc(-c2cn3ncc(F)c3c(N3C[C@@H](C)[C@@](C#N)(C4CC4)C3=O)n2)cn1 (relative stereo) [Example 305, (3R,4S)-3-cyclopropyl-1-(3-fluoro-6-(1-((2S,3S)-2-methyloxetan-3-yl)-1H-pyrazol-4-yl)pyrazolo[1,5-a]pyrazin-4-yl)-4-methyl-2-oxopyrrolidine-3-carbonitrile and (3R,4S)-3-cyclopropyl-1-(3-fluoro-6-(1-((2R,3R)-2-methyloxetan-3-yl)-1H-pyrazol-4-yl)pyrazolo[1,5-a]pyrazin-4-yl)-4-methyl-2-oxopyrrolidine-3-carbonitrile] | > 100 nM | < 5 nM | < 100 nM | < 100 nM | < 100 nM
COc1ncc(-c2cn3nccc3c(N3C[C@@H](C)[C@@](C#N)(C4CC4)C3=O)n2)cc1C#N [Example 262, 5-(4-((3R,4S)-3-cyano-3-cyclopropyl-4-methyl-2-oxopyrrolidin-1-yl)pyrazolo[1,5-a]pyrazin-6-yl)-2-methoxynicotinonitrile trifluoroacetate] | – | 20 to 50 nM | > 10000 nM | > 10000 nM | > 10000 nM
C[C@@H]1CN(c2nc(-c3cnn(C)c3)cc3nccn23)C(=O)[C@]1(C#N)C1CC1 [Example 269, (3R,4S)-3-cyclopropyl-4-methyl-1-(7-(1-methyl-1H-pyrazol-4-yl)imidazo[1,2-c]pyrimidin-5-yl)-2-oxopyrrolidine-3-carbonitrile] | – | > 100 nM | 5000 to 10000 nM | 1000 to 5000 nM | 1000 to 5000 nM
C[C@@H]1CN(c2cc(-c3cnn(C(F)F)c3)cn3ncc(F)c23)C(=O)[C@]1(C#N)C1CC1 [Example 270, (3R,4S)-3-cyclopropyl-1-(6-(1-(difluoromethyl)-1H-pyrazol-4-yl)-3-fluoropyrazolo[1,5-a]pyridin-4-yl)-4-methyl-2-oxopyrrolidine-3-carbonitrile] | – | 20 to 50 nM | 1000 to 5000 nM | 1000 to 5000 nM | 1000 to 5000 nM
C[C@@H]1CN(c2ccnc3cc(-c4cnn(C)c4)nn23)C(=O)[C@]1(C#N)C1CC1 [Example 273, (3R,4S)-3-cyclopropyl-4-methyl-1-(2-(1-methyl-1H-pyrazol-4-yl)pyrazolo[1,5-a]pyrimidin-7-yl)-2-oxopyrrolidine-3-carbonitrile] | – | > 100 nM | > 10000 nM | 5000 to 10000 nM | 5000 to 10000 nM
C[C@@H]1CN(c2n[nH]c3ncc(-c4cnn(C)c4)cc23)C(=O)[C@]1(C#N)C1CC1 [Example 274, (3R,4S)-3-cyclopropyl-4-methyl-1-(5-(1-methyl-1H-pyrazol-4-yl)-1H-pyrazolo[3,4-b]pyridin-3-yl)-2-oxopyrrolidine-3-carbonitrile] | – | > 100 nM | 100 to 1000 nM | > 10000 nM | > 10000 nM
C[C@@H]1CN(c2ccc3ncc(-c4cnn(C)c4)cn23)C(=O)[C@]1(C#N)C1CC1 [Example 283, (3R,4S)-3-cyclopropyl-4-methyl-1-(3-(1-methyl-1H-pyrazol-4-yl)pyrrolo[1,2-a]pyrimidin-6-yl)-2-oxopyrrolidine-3-carbonitrile] | – | > 100 nM | > 10000 nM | > 10000 nM | > 10000 nM
C[C@@H]1CN(c2ncnc3cc(-c4cnn(C)c4)sc23)C(=O)[C@]1(C#N)C1CC1 [Example 286, (3R,4S)-3-cyclopropyl-4-methyl-1-(6-(1-methyl-1H-pyrazol-4-yl)thieno[3,2-d]pyrimidin-4-yl)-2-oxopyrrolidine-3-carbonitrile] | – | > 100 nM | 1000 to 5000 nM | > 10000 nM | > 10000 nM
C[C@@H]1CN(c2cc(-c3cnn(C)c3)cc3nscc23)C(=O)[C@]1(C#N)C1CC1 [Example 351, (3R,4S)-3-cyclopropyl-4-methyl-1-(6-(1-methyl-1H-pyrazol-4-yl)benzo[c]isothiazol-4-yl)-2-oxopyrrolidine-3-carbonitrile] | – | 20 to 50 nM | 100 to 1000 nM | 100 to 1000 nM | 100 to 1000 nM

Next, values leading:

IC50 [1] | IC50 [2] | IC50 [3] | IC50 [4] | IC50 [5] | Compound
> 100 nM | < 5 nM | < 100 nM | < 100 nM | < 100 nM | C[C@@H]1CN(c2ccnn3cc(-c4cnn([C@@H]5COCC(F)(F)C5)c4)cc23)C(=O)[C@]1(C#N)C1CC1 (single isomer, unassigned) [Example 328]
– | 50 to 100 nM | 1000 to 5000 nM | 1000 to 5000 nM | 1000 to 5000 nM | C[C@@H]1CN(c2nc(-c3cncnc3)cn3nccc23)C(=O)[C@]1(C#N)C1CC1 [Example 265, (3R,4S)-3-cyclopropyl-4-methyl-2-oxo-1-(6-(pyrimidin-5-yl)pyrazolo[1,5-a]pyrazin-4-yl)pyrrolidine-3-carbonitrile trifluoroacetate]
– | > 100 nM | > 10000 nM | > 10000 nM | > 10000 nM | C[C@@H]1CN(c2cccn3nc(-c4cnn(C)c4)cc23)C(=O)[C@]1(C#N)C1CC1 [Example 272, (3R,4S)-3-cyclopropyl-4-methyl-1-(2-(1-methyl-1H-pyrazol-4-yl)pyrazolo[1,5-a]pyridin-4-yl)-2-oxopyrrolidine-3-carbonitrile]
– | > 100 nM | > 10000 nM | > 10000 nM | > 10000 nM | C[C@@H]1CN(c2nn(-c3cccc(=O)n3C)c3cnccc23)C(=O)[C@]1(C#N)C1CC1 [Example 279, (3R,4S)-3-cyclopropyl-4-methyl-1-(1-(1-methyl-6-oxo-1,6-dihydropyridin-2-yl)-1H-pyrazolo[3,4-c]pyridin-3-yl)-2-oxopyrrolidine-3-carbonitrile]
– | 20 to 50 nM | 1000 to 5000 nM | 1000 to 5000 nM | 1000 to 5000 nM | Cc1ccc(-n2nc(N3C[C@@H](C)[C@@](C#N)(C4CC4)C3=O)c3ccncc32)cn1 [Example 282, (3R,4S)-3-cyclopropyl-4-methyl-1-(1-(6-methylpyridin-3-yl)-1H-pyrazolo[3,4-c]pyridin-3-yl)-2-oxopyrrolidine-3-carbonitrile]
– | > 100 nM | > 10000 nM | > 10000 nM | > 10000 nM | C[C@@H]1CN(c2cc(-c3cnn(C)c3)cc3ncnn23)C(=O)[C@]1(C#N)C1CC1 [Example 285, (3R,4S)-3-cyclopropyl-4-methyl-1-(7-(1-methyl-1H-pyrazol-4-yl)-[1,2,4]triazolo[1,5-a]pyridin-5-yl)-2-oxopyrrolidine-3-carbonitrile]
– | > 100 nM | > 10000 nM | > 10000 nM | > 10000 nM | C[C@@H]1CN(c2cc(-c3cnn(C)c3)cc3nccn23)C(=O)[C@]1(C#N)C1CC1 [Example 287, (3R,4S)-3-cyclopropyl-4-methyl-1-(7-(1-methyl-1H-pyrazol-4-yl)imidazo[1,2-a]pyridin-5-yl)-2-oxopyrrolidine-3-carbonitrile]
– | > 100 nM | > 10000 nM | 1000 to 5000 nM | > 10000 nM | C[C@@H]1CN(c2ccnn3cc(-n4ccccc4=O)cc23)C(=O)[C@]1(C#N)C1CC1 [Example 340, (3R,4S)-3-cyclopropyl-4-methyl-2-oxo-1-(6-(2-oxopyridin-1(2H)-yl)pyrrolo[1,2-b]pyridazin-4-yl)pyrrolidine-3-carbonitrile]
– | > 100 nM | 1000 to 5000 nM | 1000 to 5000 nM | 1000 to 5000 nM | Cc1ncn(-c2cc3c(N4C[C@@H](C)[C@@](C#N)(C5CC5)C4=O)ccnn3c2)n1 [Example 342, (3R,4S)-3-cyclopropyl-4-methyl-1-(6-(3-methyl-1H-1,2,4-triazol-1-yl)pyrrolo[1,2-b]pyridazin-4-yl)-2-oxopyrrolidine-3-carbonitrile]
– | > 100 nM | > 10000 nM | > 10000 nM | > 10000 nM | Cc1cnn(-c2cc3c(N4C[C@@H](C)[C@@](C#N)(C5CC5)C4=O)ccnn3c2)n1 [Example 343, (3R,4S)-3-cyclopropyl-4-methyl-1-(6-(4-methyl-2H-1,2,3-triazol-2-yl)pyrrolo[1,2-b]pyridazin-4-yl)-2-oxopyrrolidine-3-carbonitrile]
– | 20 to 50 nM | 1000 to 5000 nM | 1000 to 5000 nM | 1000 to 5000 nM | Cc1cnn(-c2cc3nccc(N4C[C@@H](C)[C@@](C#N)(C5CC5)C4=O)c3o2)c1 [Example 345, (3R,4S)-3-cyclopropyl-4-methyl-1-(2-(4-methyl-1H-pyrazol-1-yl)furo[3,2-b]pyridin-7-yl)-2-oxopyrrolidine-3-carbonitrile]
